According to patent US4268630A, “Microbiological production of ketones from C3 -C6 alkanes” (priority 1979, dated 1981):
“Also recorded” adds a separate entry of the source. Like-named read-outs stand apart in the source and are kept apart here.

What was measured:
[1] = tested on: secondary alcohol dehydrogenase; assay: Activity of purified yeast-derived secondary alcohol dehydrogenase; format: biochemical, Pichia sp. NRRL Y-11,328; conditions: for inhibition of secondary alcohol dehydrogenase activity (in words): primary alcohols tested at 10^-3 M
[2] = tested on: cell suspensions of C1-utilizers; assay: Production of 2-butanone from 2-butanol / sec-alcohol oxidation by cell suspensions of the strains tested; format: cell-based; conditions: for inhibition of production of 2-butanone from 2-butanol (in words): cell suspensions of the strains tested
Description: The substrate specificity for the oxidation of C3 -C6 secondary alcohols by the strains of C1 -utilizers was studied.

[3] = tested on: secondary alcohol dehydrogenase (SADH); assay: Activity of purified secondary alcohol dehydrogenase (inhibition, substrate specificity, Km); format: biochemical, Pseudomonas sp. ATCC 21439; conditions: for % inhibition of SADH activity: each inhibitor at a final concentration of 1 mM, spectrofluorometric; for relative percent rate of oxidation: 2-butanol = 100%
Method: Secondary alcohol dehydrogenase (SADH) from an obligate methanol utilizer, Pseudomonas sp. ATCC 21439 was purified as follows. […] 0.05 M sodium phosphate buffer, pH 7.0 with 0.5 mM dithiothretol (buffer A) and were disrupted sonically (5×1 min.). The crude extract was separated by centrifugation. The crude extract was heat-treated at 50° C. in a water bath for 10 minutes. The resulting precipitate was removed by centrifugation. To the supernatant solution, 25 ml of protamine sulfate solution (2% solution in 0.1 M Tris base) was added dropwise with continuous stirring. After standing for 30 minutes, the extract was centrifuged. The supernatant solution was fractionated with solid ammonium sulfate. The material precipitating between 30 and 60% saturation was collected and was dialized overnight against buffer A. The The dialized material was applied to a DEAE-cellulose column (3 cm by 35 cm) that had been equilibrated with buffer A. The secondary alcohol dehydrogenase activity was eluted in the void volume. This DEAE-cellulose eluate was concentrated by ammonium sulfate fractionation. Material precipitating between 30 and 50% ammonium sulfate saturation was collected by centrifugation and dialyzed overnight against A. This fraction was further washed and filtered through an Amicon unit with XM 50 membrane. The concentrated fraction (6 ml) inside the Amicon unit was applied to an Affi-Gel Blue column (0.8 cm×18 cm) which had been equilibrated with buffer A for affinity chromatography. The column was washed overnight with buffer A (0.18 ml./min.) and then was eluted with buffer A containing 5 mM NAD. Each 1 ml. fraction was collected.
The purified secondary alcohol dehydrogenase enzyme (SADH) may be used directly for converting C3 -C6 secondary alcohols to the corresponding methyl ketones by the procedures described above; however, a source of NAD^+ must be added to the reaction medium. One can determine the NAD-linked secondary alcohol dehydrogenase activity with a fluorescence spectrophotometer (Perkin Elmer, Model MPF 44A) by following the formation of reduced NAD (Ex 340 nm, Em 460 nm). The assay system (3 ml.) will typically contain: sodium phosphate buffer pH 7.0, 150 μmol; NAD 1.0 μmol; a given amount of enzyme preparation; and 20 μmol secondary alcohol. The reaction is started by the addition of secondary alcohol. One unit of SADH enzyme activity represents the reduction of one nmole NAD per minute.
The effect of metal-chelating agents and thioreagents on the activity of the purified SADH enzyme were studied. […] The possibility of ethanol or n-propanol as an inhibitor was studied.

[4] = tested on: cell-free particulate fraction of methane-grown methylotrophs; assay: Conversion of n-alkanes to sec. alcohols by cell-free particulate fractions: inhibitors and electron donors; format: biochemical
Description: The conditions for preparing the cell suspensions or the cell-free particulate fractions from methane-grown methylotroph microorganisms is the same as described above.

[5] = tested on: Methylosinus trichosporium OB3b NRRL B-11,196; assay: Conversion of n-alkanes to oxidation products by cell suspensions; format: cell-based; conditions: methane-grown cell suspension, pH 7.0
Method: (§1) ^(a) Cell-suspensions of methanegrown methylotroph microorganisms
(§2) indicated in 0.15 M phosphate buffer, pH 7.0 incubated in the alkanes as
(§3) indicated at 3° C. The oxidation products were determined by g.l.c

[6] = tested on: Methylococcus capsulatus CRL M1 NRRL B-11,219; assay: as above; format: cell-based; conditions: methane-grown cell suspension, pH 7.0
Method: as §1, §2, §3

[7] = tested on: cell-free secondary alcohol dehydrogenase (SADH) system; assay: Cofactor requirement of cell-free soluble extracts oxidizing 2-butanol; format: biochemical
Method: To prepare the cell-free secondary alcohol dehydrogenase (SADH) system, the washed cells were disrupted with a Wave Energy Ultrasonic Oscillator, Model W201 (Wave Energy System, Inc., Newtown, Pa.) and centrifuged at 20,000× g. for 30 minutes. […] The enzyme activity was measured with a fluorescence spectrophotometer (Perkin Elmer, Model MPF 44A) by following the formation of reduced NAD (EX 340 nm, Em 460 nm). The formation of reduced NAD was also followed with an absorption spectrophotometer at 340 nm. The assay system (3 ml.) contained: potassium phosphate buffer pH 7.0; 150 μmol.; NAD 1 μmol.; a given amount of enzyme preparation; and secondary alcohol 10 μmol. The reaction was started by the addition of substrate. One unit of enzyme activity represents the reduction of one μmole NAD per minute. Protein concentrations were determined by the Lowry method (J. Biol. Chem., 193: 255-275 (1951)).

CC(O)CO (stereo not drawn) [1,2-propandiol]
substrate specificity of purified yeast secondary alcohol dehydrogenase (in words) ([1]; spectrophotometric): not oxidized

c1cnc2c(c1)ccc1cccnc12 [1,10-phenanthroline, reference compound]
inhibition of production of 2-butanone from 2-butanol (in words) [2]: inhibited
% inhibition of SADH activity [3]: 95%
inhibition of secondary alcohol dehydrogenase activity (in words) [1]: strongly inhibited
inhibition of conversion of n-alkanes to sec. alcohols (in words) [4]: inhibited

CCC(C)=O [2-Butanone, 2-butanone]
product inhibition of 2-butanone production ([2]; exogenously supplied 2-butanone (8 μmoles) with viable cell suspensions): No product (2-butanone) inhibition; also recorded: did not inhibit
inhibition of SADH activity (in words) ([3]; purified SADH): inhibited

CCCCCC(C)O (stereo not drawn) [2-heptanol]
substrate specificity: rate of oxidation of secondary alcohols (in words) ([2]; cell suspensions of C1-utilizers): oxidized at a much slower rate
substrate specificity of purified yeast secondary alcohol dehydrogenase (in words) ([1]; spectrophotometric): not oxidized

CCCCCCC(C)O (stereo not drawn) [2-octanol]
substrate specificity of purified yeast secondary alcohol dehydrogenase (in words) ([1]; spectrophotometric): not oxidized

O=C(O)c1cc(SSc2ccc([N+](=O)[O-])c(C(=O)O)c2)ccc1[N+](=O)[O-] [5,5'-dithiobis(2-nitrobenzoic acid), reference compound]
% inhibition of SADH activity [3]: 100%
inhibition of SADH activity (in words) ([3]; purified SADH): inhibited

Oc1cccc2cccnc12 [8-hydroxyquinoline]
inhibition of conversion of n-alkanes to sec. alcohols (in words) [4]: inhibited

[Co+2] [Co^++, reference compound]
% inhibition of SADH activity [3]: 0%

CC [Ethane]
Conversion Rate to product Ethanol [5]: 1.3 μmoles/hr./mg./protein
Conversion Rate to product Ethanol [6]: 2.0 μmoles/hr./mg./protein

C [Methane]
Conversion Rate to product Methanol ([5]; […] phosphate buffer): 1.5 μmoles/hr./mg./protein
Conversion Rate to product Methanol [6]: 2.5 μmoles/hr./mg./protein

[Mg+2] [Mg^++, reference compound]
% inhibition of SADH activity [3]: 0%

[Mn+2] [Mn^++, reference compound]
% inhibition of SADH activity [3]: 0%

CCN1C(=O)C=CC1=O [N-ethylmalemide, N-ethylmaleimide, reference compound]
% inhibition of SADH activity [3]: 6%
inhibition of SADH activity (in words) ([3]; purified SADH): not inhibited

NC(=O)C1=CN([C@@H]2O[C@H](COP(=O)(O)OP(=O)(O)OC[C@H]3O[C@@H](n4cnc5c(N)ncnc54)[C@H](OP(=O)(O)O)[C@@H]3O)[C@@H](O)[C@H]2O)C=CC1 [NAD(P)H]
effectiveness as cofactor for oxidation of 2-butanol [7]: not effective

NC(=O)C1=CN([C@@H]2O[C@H](COP(=O)(O)OP(=O)(O)OC[C@H]3O[C@@H](n4cnc5c(N)ncnc54)[C@H](O)[C@@H]3O)[C@@H](O)[C@H]2O)C=CC1 [NADH, reduced nicotinamide adenine dinucleotide]
use as electron donor for hydroxylation of n-alkanes [4]: requires

NC(=O)C1=CN([C@@H]2O[C@H](COP(=O)(O)OP(=O)(O)OC[C@H]3O[C@@H](n4cnc5c(N)ncnc54)[C@H](OP(=O)(O)O)[C@@H]3O)[C@@H](O)[C@H]2O)C=CC1 [NADPH, reduced nicotinamide adenine dinucleotide phosphate]
use as electron donor for hydroxylation of n-alkanes [4]: could also be utilized as an electron donor

[N-]=[N+]=[N-] [Sodium azide, reference compound]
% inhibition of SADH activity [3]: 10%

NC(N)=S [Thiourea, reference compound]
inhibition of production of 2-butanone from 2-butanol (in words) [2]: not inhibited
% inhibition of SADH activity [3]: 0%
inhibition of SADH activity (in words) ([3]; purified SADH): not inhibited
inhibition of conversion of n-alkanes to sec. alcohols (in words) [4]: inhibited

[Zn+2] [Zn^++, reference compound]
stimulation of SADH activity by exogenous zinc [3]: did not stimulate
% inhibition of SADH activity [3]: 0%

CC=O [acetaldehyde]
substrate specificity of purified SADH (in words) [3]: lower rate
relative percent rate of oxidation [3]: 4%

O=Cc1ccccc1 [benzaldehyde]
substrate specificity of purified SADH (in words) [3]: not oxidized

CCCCO [butan-1-ol]
substrate specificity of purified yeast secondary alcohol dehydrogenase (in words) [1]: not oxidized

CCC(O)CO (stereo not drawn) [butane 1,2-diol]
substrate specificity of purified SADH (in words) [3]: not oxidized
substrate specificity of purified yeast secondary alcohol dehydrogenase (in words) ([1]; spectrophotometric): not oxidized

CC(O)CCO (stereo not drawn) [butane 1,3-diol]
substrate specificity of purified SADH (in words) [3]: lower rate
relative percent rate of oxidation [3]: 2%
substrate specificity of purified yeast secondary alcohol dehydrogenase (in words) ([1]; spectrophotometric): not oxidized

CC(O)C(C)O (stereo not drawn) [butane 2,3-diol]
substrate specificity of purified SADH (in words) [3]: lower rate
relative percent rate of oxidation [3]: 2.5%

O=S(=O)([O-])[O-].[Cu+2] [cupric sulfate, reference compound]
inhibition of secondary alcohol dehydrogenase activity (in words) [1]: inhibited

[Cu+2] [cupric, reference compound]
% inhibition of SADH activity [3]: 25%

OC1CCCCC1 [cyclohexanol]
substrate specificity of purified SADH (in words) [3]: lower rate
relative percent rate of oxidation [3]: 4%

CCO [ethanol]
inhibition of SADH activity (in words) [3]: did not inhibit
substrate specificity of purified yeast secondary alcohol dehydrogenase (in words) [1]: not oxidized

[Fe+3] [ferric, reference compound]
% inhibition of SADH activity [3]: 35%

[Fe+2] [ferrous, reference compound]
% inhibition of SADH activity [3]: 50%

C=O [formaldehyde]
substrate specificity of purified SADH (in words) [3]: not oxidized

c1c[nH]cn1 [imidiazole, reference compound]
inhibition of secondary alcohol dehydrogenase activity (in words) [1]: strongly inhibited

O=C(O)CI [iodoacetic acid, reference compound]
inhibition of SADH activity (in words) [3]: not inhibited

CC(C)CO [isobutanol]
substrate specificity of purified SADH (in words) [3]: not oxidized

N#C[S][Hg][S]C#N [mercuric thiocyanate, reference compound]
inhibition of secondary alcohol dehydrogenase activity (in words) [1]: inhibited

CO [methanol]
substrate specificity of purified yeast secondary alcohol dehydrogenase (in words) ([1]; spectrophotometric): not oxidized

CCCO [n-propanol]
inhibition of SADH activity (in words) [3]: did not inhibit
substrate specificity of purified yeast secondary alcohol dehydrogenase (in words) [1]: not oxidized

[Ni+2] [nickel, reference compound]
% inhibition of SADH activity [3]: 20%

O=C(O)c1cc[c]([Hg+])cc1.[OH-] [p-hydroxymercuribenzoate, reference compound]
% inhibition of SADH activity [3]: 100%
inhibition of secondary alcohol dehydrogenase activity (in words) [1]: strongly inhibited

CCCCCO [pentan-1-ol]
substrate specificity of purified yeast secondary alcohol dehydrogenase (in words) ([1]; spectrophotometric): not oxidized

Oc1ccccc1 [phenol]
substrate specificity of purified SADH (in words) [3]: not oxidized

CCCO [propanol]
substrate specificity of purified SADH (in words) [3]: lower rate
relative percent rate of oxidation [3]: 2%

C=CC [propylene]
inhibition of conversion of n-alkanes to sec. alcohols (in words) [4]: inhibited
inhibition of conversion of n-alkanes to sec. alcohols (in words) ([4]; listed as Propylene): inhibit

O=[N+]([O-])[O-].[Ag+] [silver nitrate, reference compound]
inhibition of secondary alcohol dehydrogenase activity (in words) [1]: inhibited

O=C(O)CCC(=O)O [succinic acid]
substrate specificity of purified SADH (in words) [3]: not oxidized

NNC(N)=S [thiosemicarbazide]
inhibition of conversion of n-alkanes to sec. alcohols (in words) [4]: inhibited

c1ccc(-c2ccccn2)nc1 [α,α-bipyridyl, reference compound]
inhibition of production of 2-butanone from 2-butanol (in words) [2]: inhibited
% inhibition of SADH activity [3]: 70%
inhibition of conversion of n-alkanes to sec. alcohols (in words) [4]: inhibited

cytochrome c [reference compound]
ability to act as electron acceptor/carrier ([1]; purified enzyme): could not act as electron carrier
